Laboratory results as given in patent publication US9132140B2, “Boronic acid derivatives and therapeutic uses thereof” (Rempex Pharmaceuticals, Inc., priority 2013, dated 2015).

Key:
[1] = system: KPM1111 (NDM, KPC); format: cell-based, Klebsiella pneumoniae
Text: (§1) Several strains simultaneously expressing both class A and class B carbapenemases, which were constructed using conjugation, were also included in the panel.

[2] = system: KPM1122 (NDM, VIM); format: cell-based, Klebsiella pneumoniae
Text: as §1

[3] = system: KPM1123 (KPC-2 TEM SHV); format: cell-based, Klebsiella pneumoniae
Text: as §1

[4] = system: KPM1344 (VIM-1); format: cell-based, Klebsiella pneumoniae
Text: as §1

[5] = system: KPM1345 (VIM-1 SHV); format: cell-based, Klebsiella pneumoniae
Text: as §1

[6] = system: KPM1346 (NDM-1 TEM SHV CTX-M-15 CMY); format: cell-based, Klebsiella pneumoniae
Text: as §1

[7] = system: KPM1347 (NDM-1 SHV CTX-M-15); format: cell-based, Klebsiella pneumoniae
Text: as §1

[8] = system: ECL1026 (KPC); format: cell-based, Enterobacter cloacae
Text: as §1

[9] = system: ECL1036 (KPC); format: cell-based, Enterobacter cloacae
Text: as §1

[10] = system: ECL1045 (VIM-1); format: cell-based, Enterobacter cloacae
Text: as §1

[11] = system: ECL1055 (KPC); format: cell-based, Enterobacter cloacae
Text: as §1

[12] = system: ECL1057 (NDM-1, TEM-1, CTX-M-15); format: cell-based, Enterobacter cloacae
Text: as §1

[13] = system: ECL1082 (VIM-1); format: cell-based, Enterobacter cloacae
Text: as §1

[14] = system: ECLM1013 (NDM, KPC); format: cell-based, Enterobacter cloacae
Text: as §1

[15] = system: ECLM1014 (NDM, KPC); format: cell-based, Enterobacter cloacae
Text: as §1

[16] = system: ECLM1015 (NDM, KPC); format: cell-based, Enterobacter cloacae
Text: as §1

[17] = system: ECLM1016 (NDM, KPC); format: cell-based, Enterobacter cloacae
Text: as §1

[18] = system: ECLM1017 (VIM, KPC); format: cell-based, Enterobacter cloacae
Text: as §1

[19] = system: ECLM1018 (VIM, KPC); format: cell-based, Enterobacter cloacae
Text: as §1

[20] = system: ECLM1019 (VIM, KPC); format: cell-based, Enterobacter cloacae
Text: as §1

[21] = system: EC1061 (NDM-1, CMY-6); format: cell-based, Escherichia coli
Text: as §1

[22] = system: EC1064 (NDM-1, CMY-6, CTX-M-15); format: cell-based, Escherichia coli
Text: as §1

[23] = system: EC1065 (IMP-1 CMY-2); format: cell-based, Escherichia coli
Text: as §1

[24] = system: EC1068 (VIM-1); format: cell-based, Escherichia coli
Text: as §1

C[C@@H](O)[C@H]1C(=O)N2C(C(=O)O)=C(SCCN=CN)C[C@H]12 [Imipenem, reference compound]
Carbapenem MIC alone [1]: Z (key: X: MIC of less than 1 μg/mL; Y: MIC of 1 μg/mL to 10 μg/mL; Z: MIC of greater than 10 μg/mL) | Carbapenem MIC alone [2]: Z (key: X: MIC of less than 1 μg/mL; Y: MIC of 1 μg/mL to 10 μg/mL; Z: MIC of greater than 10 μg/mL) | Carbapenem MIC alone [3]: Z (key: X: MIC of less than 1 μg/mL; Y: MIC of 1 μg/mL to 10 μg/mL; Z: MIC of greater than 10 μg/mL) | Carbapenem MIC alone [4]: Z (key: X: MIC of less than 1 μg/mL; Y: MIC of 1 μg/mL to 10 μg/mL; Z: MIC of greater than 10 μg/mL) | Carbapenem MIC alone [5]: Y (key: X: MIC of less than 1 μg/mL; Y: MIC of 1 μg/mL to 10 μg/mL; Z: MIC of greater than 10 μg/mL) | Carbapenem MIC alone [6]: Z (key: X: MIC of less than 1 μg/mL; Y: MIC of 1 μg/mL to 10 μg/mL; Z: MIC of greater than 10 μg/mL) | Carbapenem MIC alone [7]: Z (key: X: MIC of less than 1 μg/mL; Y: MIC of 1 μg/mL to 10 μg/mL; Z: MIC of greater than 10 μg/mL) | Carbapenem MIC alone [8]: Y (key: X: MIC of less than 1 μg/mL; Y: MIC of 1 μg/mL to 10 μg/mL; Z: MIC of greater than 10 μg/mL) | Carbapenem MIC alone [9]: Y (key: X: MIC of less than 1 μg/mL; Y: MIC of 1 μg/mL to 10 μg/mL; Z: MIC of greater than 10 μg/mL) | Carbapenem MIC alone [10]: Y (key: X: MIC of less than 1 μg/mL; Y: MIC of 1 μg/mL to 10 μg/mL; Z: MIC of greater than 10 μg/mL) | Carbapenem MIC alone [11]: Y (key: X: MIC of less than 1 μg/mL; Y: MIC of 1 μg/mL to 10 μg/mL; Z: MIC of greater than 10 μg/mL) | Carbapenem MIC alone [12]: Z (key: X: MIC of less than 1 μg/mL; Y: MIC of 1 μg/mL to 10 μg/mL; Z: MIC of greater than 10 μg/mL) | Carbapenem MIC alone [13]: Z (key: X: MIC of less than 1 μg/mL; Y: MIC of 1 μg/mL to 10 μg/mL; Z: MIC of greater than 10 μg/mL) | Carbapenem MIC alone [14]: Z (key: X: MIC of less than 1 μg/mL; Y: MIC of 1 μg/mL to 10 μg/mL; Z: MIC of greater than 10 μg/mL) | Carbapenem MIC alone [15]: Y (key: X: MIC of less than 1 μg/mL; Y: MIC of 1 μg/mL to 10 μg/mL; Z: MIC of greater than 10 μg/mL) | Carbapenem MIC alone [16]: Z (key: X: MIC of less than 1 μg/mL; Y: MIC of 1 μg/mL to 10 μg/mL; Z: MIC of greater than 10 μg/mL) | Carbapenem MIC alone [17]: Z (key: X: MIC of less than 1 μg/mL; Y: MIC of 1 μg/mL to 10 μg/mL; Z: MIC of greater than 10 μg/mL) | Carbapenem MIC alone [18]: Z (key: X: MIC of less than 1 μg/mL; Y: MIC of 1 μg/mL to 10 μg/mL; Z: MIC of greater than 10 μg/mL) | Carbapenem MIC alone [19]: Z (key: X: MIC of less than 1 μg/mL; Y: MIC of 1 μg/mL to 10 μg/mL; Z: MIC of greater than 10 μg/mL) | Carbapenem MIC alone [20]: Z (key: X: MIC of less than 1 μg/mL; Y: MIC of 1 μg/mL to 10 μg/mL; Z: MIC of greater than 10 μg/mL) | Carbapenem MIC alone [21]: Y (key: X: MIC of less than 1 μg/mL; Y: MIC of 1 μg/mL to 10 μg/mL; Z: MIC of greater than 10 μg/mL) | Carbapenem MIC alone [22]: Z (key: X: MIC of less than 1 μg/mL; Y: MIC of 1 μg/mL to 10 μg/mL; Z: MIC of greater than 10 μg/mL) | Carbapenem MIC alone [23]: Y (key: X: MIC of less than 1 μg/mL; Y: MIC of 1 μg/mL to 10 μg/mL; Z: MIC of greater than 10 μg/mL) | Carbapenem MIC alone [24]: Y (key: X: MIC of less than 1 μg/mL; Y: MIC of 1 μg/mL to 10 μg/mL; Z: MIC of greater than 10 μg/mL)
